Reference: patent US5766927A, “Inhibition of protein degradation in living cells with dipeptides” (Massachusetts Institute of Technology, priority 1994, dated 1998)
“Also recorded” adds a separate entry of the source. Like-named read-outs stand apart in the source and are kept apart here. Residues, ends and D or L forms follow the SMILES beside them.

Legend:
Arg-βgal = test: Steady state β-galactosidase activity, cells expressing Arg-βgal; conditions: for in vivo metabolic stabilization of Arg-βgal (βgal activity relative to untreated control): 2 hours incubation with dipeptide
Protocol: (§1) Saccharomyces cerevisiaecells of the strain BWGl-7a (MATa his4 ade1 ura3 leu2) were transformed with plasmids using conventional techniques (F. Sherman et al. Methods in Yeast Genetics Cold Spring Harbor Laboratory, N.Y., 1981). The transformed cells were grown at 30° C. in a medium of 2% galactose, 0.67% Yeast Nitrogen Base without amino acids (Difco), adenine (10 μg/mL), histidine (20 μg/mL) and leucine (60 ug/mL).

[1] = test system: yeast (S.cerevisiae) cells; test: Effect on yeast cell growth (optical density at 600 nm)
Protocol: as §1
The effect of 10 mM of leucine methyl ester (Leu methyl ester) on growth of exponentially growing yeast cells harboring a plasmid expressing either arginine-βgal (Arg-βgal, .largecircle., .circle-solid.) or leucine-βgal (Leu-βgal, .quadrature.,.box-solid.), supplemented with nothing (.largecircle.,.box-solid.) or with Leu methyl ester to a 10 mM final concentration (.box-solid.,.circle-solid.), was assessed. Results are represented in FIG. 1. Growth under each of these conditions was monitored by optical density at 600 nm.

Leu-βgal [2] = test: Steady state β-galactosidase activity, cells expressing Leu-βgal; format: cell-based, Saccharomyces cerevisiae; conditions: 10 mM
Protocol: (§2) Incubation was continued at 30° C.
Control cultures (.largecircle., .quadrature.) received no methyl ester.
Exponentially growing yeast cells harboring a plasmid expressing Leu- βal were supplemented with Leu methyl ester to the 10 mM final concentration (zero time) and assayed for βgal activity over a 7 hour time course (.box-solid.). A control culture (.quadrature.) received no methyl ester.

[3] = test system: X-βgal proteins with bulky hydrophobic amino termini (Phe-βgal, Leu-βgal, Trp-βgal, Tyr-βgal, Ile-βgal); test: Steady state β-galactosidase activity, X-βgal proteins with bulky hydrophobic amino-terminal residues; format: cell-based, Saccharomyces cerevisiae; conditions: 1 hour incubation
Protocol: as §2

Val-βgal = test: Steady state β-galactosidase activity, cells expressing Val-βgal (control); format: cell-based, Saccharomyces cerevisiae; conditions: Leu-OMe 0 to 10 mM, 1 hour incubation
Protocol: as §2

Leu-βgal [4] = format: cell-based, Saccharomyces cerevisiae; conditions: for half-life (metabolic stabilization) of Leu-βgal in the presence of Leu methyl ester: 10 mM, 3 hour incubation
Protocol: (§3) Transformed cells were grown as described above, except that methionine (20 ug/mL) was included, to an optical density of about 0.5 at 600 nm. Amino acid derivatives were added and incubation continued for 4 to 5 hours until the optical density was approximately 1.0. Cells from a 10 mL culture were harvested by filtration through the well of a microtiter filtration plate. Subsequently, the cells were washed several times on the filter in the growth medium lacking methionine, and resuspended in 0.4 mL of 1% galactose, 50 mM potassium phosphate buffer (pH 7.4). (^35 S)methionine (100 uCi) was then added for a specified pulse time. The cells were collected by filtration and resuspended in 0.4 mL of the growth medium containing cycloheximide (0.2 mg/mL) and trichodermin (50 ug/mL). Samples (0.1 mL) were withdrawn at indicated times, and added to 0.8 mL of cold Buffer A (50 mM Na-HEPES pH 7.5, 0.15M NaCl, 5 mM EDTA, 1% TRiton X-100) containing leupeptin, pepstatin A, antipain, aprotinin and chymostatin (Sigma), (each at 20 ug/mL) in addition to 0.4 mL of glass beads. The cells were disrupted by vortexing three times for one minute at 4° C. The extracts were centrifuged at 12,000 g for 10 minutes and the radioactivity of acid-insoluble ^35 S in the supernatants was determined. Aliquots of the supernatants containing equal amounts of total acid-insoluble ^35 S were processed for immunoprecipitation with a monoclonal antibody to βgal. Ascitic fluid containing a molar excess of the antibody (at least ten-fold) was added to each aliquot, with subsequent incubation on ice for 1 to 2 hours. Protein A-Sepharose (Pharmacia) was then added and the suspension was incubated with rocking at 4° C. for 30 minutes and centrifuged at 12,000 g for thirty seconds. The protein A-Sepharose pellets were washed three times in Buffer A containing 0.1% SDS, resuspended in an SDS, dithiothreitol (DTT)-containing electrophoretic sample buffer, heated at 100° C. for 3 minutes, and centrifuged at 12,000 g for 20 seconds. (Laemmli, Nature 227, 680 (1970)). The supernatants were subjected to electrophoresis in a 6% discontinuous polyacrylamide-SDS gel (150 by 150 by 1.5 mm), with subsequent fluorography.
(§4) After fluorography of the pulse-chase gels, the amount of radioactivity in each band was detected by scintillation counting of the respective gel slices. Half-lives were calculated from these values (appropriately adjusted using the value from a blank gel slice) assuming a first-order kinetics of protein breakdown.
A pulse-chase experiment (5 minute pulse) was carried out with cells expressing Val-βgal (A), or Leu-βgal in the presence (B) or absence (C) of a 3 hour incubation with 10 mM Leu methyl ester. Timepoints: 0 min (lane 1); 10 min (lane 2); and 30 min (lane 3). Bands are labelled: βgal (β-galactosidase); 90 kD (a cleavage product of βgal; note its absence from the lanes with metabolically stable Val-βgal lanes); X (an unrelated protein species crossreacting with the monoclonal antibody to βgal); and S (a βgal cleavage product apparently specific for metabolically stable X-βgal; species).
A pulse-chase experiment (5 minute pulse) was carried out with cells expressing Val-βgal (A), Leu-βgal (B), Leu-βgal plus 10 mM L-Ala-L-Trp (C), and Leu-βgal plus 10 mM L-Trp-L-Ala (D). Incubation with each dipeptide was carried out for 4 hours. Timepoints: 0 min (lane 1); 10 min (lane 2); and 30 min (lane 3). See legend to FIG. 6 for band designations.

Tyr-βgal = test: Pulse-chase experiment in vivo and half-life determination, Tyr-βgal; format: cell-based, Saccharomyces cerevisiae; conditions: for in vivo half-life (metabolic stabilization) of Tyr-βgal: 4 hour incubation
Protocol: as §3, §4
A pulse-chase experiment (3 minute pulse) was carried out with cells expressing Tyr-βgal in the absence (A) or presence (B) of a 4 hour incubation with 10 mM Leu methyl ester. Timepoints: 0 min (lane 1); 10 min (lane 2); 30 min (lane 3); and 60 min (lane 4). See legend to FIG. 6 for band designations.

[5] = 10 mM Leu methyl ester vs minus OMe
[6] = dipeptides, over the time periods used (data not shown)

C[C@@H](NC(=O)[C@@H](N)CCCNC(=N)N)C(=O)O [L-Arg-D-Ala] (HELM PEPTIDE1{R.[dA]}$$$$V2.0)
in vivo metabolic stabilization of Arg-βgal (βgal activity relative to untreated control) (Arg-βgal): stronger metabolic stabilization; also recorded: much better in vivo metabolic stabilizer

COC(=O)[C@@H](N)CC(C)C [Leu methyl ester, leucine methyl ester]
effect on cell growth ([1]; 10 mM Leu methyl ester, exponentially growing cells expressing Arg-βgal or Leu-βgal): no adverse effects | steady state activity (amount) of Leu-βgal (Leu-βgal [2]; 3 hours incubation, varying initial OD600): specifically increases | increase in βgal level per hour (slope of line of best fit, compared with control levels) (Leu-βgal [2]; 7 hour time course, Leu-βgal): 11 fold per hour | magnitude of the effect on Leu-βgal levels over time (Leu-βgal [2]; first 7 hours): increases linearly with time | amount of Arg-βgal (Arg-βgal; 10 mM Leu methyl ester, 3 hours incubation, varying initial OD600): does not increase | effect on Arg-βgal level (Arg-βgal; Leu-OMe 0 to 10 mM, 1 hour incubation): No effect | concentration at which the effect reaches saturation [3]: 5 to 10 mM | levels of all 5 X-βgal proteins with bulky hydrophobic amino termini ([3]; Leu-OMe 0 to 10 mM): increased | effect on Val-βgal level (Val-βgal): No effect | 90 kD βgal cleavage product (Leu-βgal [4]; 10 mM Leu methyl ester): much diminished | increase in half-life of Leu-βgal (Leu-βgal [4]; [5]): 3 fold | zero-time increase in the amount of Leu-βgal protein (βgal band, lane 1) (Leu-βgal [4]; 10 mM Leu methyl ester, 5 minute pulse): 1.9 fold | half-life (metabolic stabilization) of Leu-βgal in the presence of Leu methyl ester (Leu-βgal [4]): metabolic stabilization | half-life (metabolic stabilization) of Leu-βgal in the presence of Leu methyl ester (Leu-βgal [4]; listed as Leu-OMe): increased | half-life (metabolic stabilization) of Leu-βgal in the presence of Leu methyl ester (Leu-βgal [4]; listed as leucine methyl ester): extended | amounts of the 90 kD cleavage product (Tyr-βgal; 10 mM Leu methyl ester): decrease | increase in half-life of Tyr-βgal (Tyr-βgal; [5]): 4.8 fold | zero-time increase in the amount of Tyr-βgal protein (Tyr-βgal; 10 mM Leu methyl ester, 3 minute pulse): 3.3 fold | in vivo half-life (metabolic stabilization) of Tyr-βgal (Tyr-βgal; 10 mM Leu methyl ester): metabolic stabilization | in vivo half-life (metabolic stabilization) of Tyr-βgal (Tyr-βgal; 10 mM Leu methyl ester, listed as Leu-OMe): increased

C[C@H](NC(=O)[C@@H](N)CCCN=C(N)N)C(=O)O [L-Arg-L-Ala, L-arginine-L-alanine] (H-Arg-Ala-OH)
effect on yeast cell growth [1, 6]: no adverse effect

C[C@H](NC(=O)[C@@H](N)Cc1c[nH]c2ccccc12)C(=O)O [L-Trp-L-Ala, L-tryptophan-L-alanine] (H-Trp-Ala-OH)
effect on yeast cell growth [1]: no adverse effect

C[C@H](N)C(=O)N[C@@H](Cc1c[nH]c2ccccc12)C(=O)O [L-Ala-L-Trp, reference compound] (H-Ala-Trp-OH)
effect on yeast cell growth [1]: no adverse effect

C[C@H](N)C(=O)N[C@@H](CCCNC(=N)N)C(=O)O [L-Ala-L-Arg, L-alanine-L-arginine, reference compound] (H-Ala-Arg-OH)
effect on yeast cell growth [1, 6]: no adverse effect | in vivo metabolic stabilization of Arg-βgal (βgal activity relative to untreated control) (Arg-βgal): no effect
